# Laboratory results reported in patent US11053204B2, “Pyrimidinyloxy benzene derivatives as herbicides” (FMC Corporation, priority 2015, dated 2021).
# Tests used:
# Test in all cases: Test C preemergence, plant response rating
# Type in all cases: in vivo
# Conditions in all cases: Preemergence
# [1] = tested on: crabgrass, large (large crabgrass, Digitaria sanguinalis)
# Description: (§1) Seeds of plant species selected from blackgrass (Alopecurus myosuroides), ryegrass, Italian (Italian ryegrass, Lolium multiflorum), wheat (winter wheat, Triticum aestivum), galium (catchweed bedstraw, Galium aparine), corn (Zea mays), crabgrass, large (large crabgrass, Digitaria sanguinalis), foxtail, giant (giant foxtail, Setaria faberii), johnsongrass (Sorghum halepense), lambsquarters (Chenopodium album), morningglory (Ipomoea coccinea), nutsedge, yellow (yellow nutsedge, Cyperus esculentus), pigweed (Amaranthus retroflexus), ragweed (common ragweed, Ambrosia elatior), soybean (Glycine max), barnyardgrass (Echinochloa crus-galli), oilseed rape (Brassica napus), pigweed, palmer (palmer pigweed, Amaranthus palmeri), waterhemp (common waterhemp, Amaranthus rudis), velvetleaf (Abutilon theophrasti), kochia (Kochia scoparia), surinam grass (Brachiaria decumbens), nightshade (eastern black nightshade, Solanum ptycanthum), wild poinsettia (Euphorbia heterophylla), windgrass (Apera spica-venti), and oat, wild (wild oat Avena fatua), were planted into a blend of loam soil and sand or a silt loam soil and treated preemergence with test chemicals formulated in a non-phytotoxic solvent mixture which included a surfactant.
# (§2) At the same time, plants selected from these crop and weed species and also chickweed (common chickweed, Stellaria media), buckwheat, wild (wild buckwheat, Polygonum convolvulus), wild mustard (Sinapis arvensis), field poppy (Papaver rhoeas), field violet (Viola arvensis), geranium, cutleaf (cutleaf geranium, Geranium dissectum), Canada thistle (Cirsium arvense), and speedwell (bird's-eye speedwell, Veronica persica), were planted in pots containing Sunshine Redi-Earth® planting medium comprising spaghnum peat moss, vermiculite, starter nutrients and dolomitic limestone and treated with postemergence applications of test chemicals formulated in the same manner. Plants ranged in height from 2 to 18 cm (1- to 4-leaf stage) for postemergence treatments. Treated plants and controls were maintained in a greenhouse for 13 to 15 d, after which time all species were compared to controls and visually evaluated. Plant response ratings, summarized in Table C, are based on a scale of 0 to 100 where 0 is no effect and 100 is complete control. A dash (-) response means no test result.
# [2] = tested on: ryegrass, Italian (Italian ryegrass, Lolium multiflorum)
# Description: as §1, §2
# [3] = tested on: blackgrass (Alopecurus myosuroides)
# Description: as §1, §2
# [4] = tested on: ragweed (common ragweed, Ambrosia elatior)
# Description: as §1, §2
# [5] = tested on: waterhemp (common waterhemp, Amaranthus rudis)
# Description: as §1, §2
# [6] = tested on: foxtail, giant (giant foxtail, Setaria faberii)
# Description: as §1, §2
# [7] = tested on: velvetleaf (Abutilon theophrasti)
# Description: as §1, §2
# [8] = tested on: lambsquarters (Chenopodium album)
# Description: as §1, §2
# [9] = tested on: wheat (winter wheat, Triticum aestivum)
# Description: as §1, §2
# [10] = tested on: morningglory (Ipomoea coccinea)
# Description: as §1, §2
# [11] = tested on: oilseed rape (Brassica napus)
# Description: as §1, §2
# [12] = tested on: nutsedge, yellow (yellow nutsedge, Cyperus esculentus)
# Description: as §1, §2
# [13] = tested on: corn (Zea mays)
# Description: as §1, §2
# [14] = tested on: soybean (Glycine max)
# Description: as §1, §2
# [15] = tested on: pigweed (Amaranthus retroflexus)
smiles,measurement,setting,value
N#Cc1cccc(Oc2ncc(Cl)cn2)c1CCCC(F)(F)F [Compound 72],"Plant response rating, Crabgrass, Large","[1]; 62 g ai/ha, scale of 0 to 100",100
same,"Plant response rating, Crabgrass, Large","[1]; 125 g ai/ha, scale of 0 to 100",100
same,"Plant response rating, Crabgrass, Large","[1]; 16 g ai/ha, scale 0 to 100",100
same,"Plant response rating, Crabgrass, Large","[1]; 31 g ai/ha, scale 0 to 100",100
same,"Plant response rating, Ryegrass, Italian","[2]; 125 g ai/ha, scale of 0 to 100",100
same,"Plant response rating, Ryegrass, Italian","[2]; 16 g ai/ha, scale 0 to 100",10
same,"Plant response rating, Ryegrass, Italian","[2]; 31 g ai/ha, scale 0 to 100",45
same,"Plant response rating, Ryegrass, Italian","[2]; 62 g ai/ha, scale 0 to 100",45
same,"Plant response rating, Blackgrass","[3]; 62 g ai/ha, scale of 0 to 100",98
same,"Plant response rating, Blackgrass","[3]; 125 g ai/ha, scale of 0 to 100",100
same,"Plant response rating, Blackgrass","[3]; 16 g ai/ha, scale 0 to 100",60
same,"Plant response rating, Blackgrass","[3]; 31 g ai/ha, scale 0 to 100",98
same,"Plant response rating, Ragweed","[4]; 125 g ai/ha, scale of 0 to 100",45
same,"Plant response rating, Ragweed","[4]; 16 g ai/ha, scale 0 to 100",0
same,"Plant response rating, Ragweed","[4]; 31 g ai/ha, scale 0 to 100",0
same,"Plant response rating, Ragweed","[4]; 62 g ai/ha, scale 0 to 100",40
same,"Plant response rating, Waterhemp","[5]; 125 g ai/ha, scale of 0 to 100",100
same,"Plant response rating, Waterhemp","[5]; 16 g ai/ha, scale 0 to 100",100
same,"Plant response rating, Waterhemp","[5]; 31 g ai/ha, scale 0 to 100",100
same,"Plant response rating, Waterhemp","[5]; 62 g ai/ha, scale 0 to 100",100
same,"Plant response rating, Foxtail, Giant","[6]; 62 g ai/ha, scale of 0 to 100",75
same,"Plant response rating, Foxtail, Giant","[6]; 125 g ai/ha, scale of 0 to 100",100
same,"Plant response rating, Foxtail, Giant","[6]; 16 g ai/ha, scale 0 to 100",55
same,"Plant response rating, Foxtail, Giant","[6]; 31 g ai/ha, scale 0 to 100",80
same,"Plant response rating, Velvetleaf","[7]; 125 g ai/ha, scale of 0 to 100",100
same,"Plant response rating, Velvetleaf","[7]; 16 g ai/ha, scale 0 to 100",10
same,"Plant response rating, Velvetleaf","[7]; 31 g ai/ha, scale 0 to 100",60
same,"Plant response rating, Velvetleaf","[7]; 62 g ai/ha, scale 0 to 100",55
same,"Plant response rating, Lambsquarters","[8]; 125 g ai/ha, scale of 0 to 100",100
same,"Plant response rating, Lambsquarters","[8]; 16 g ai/ha, scale 0 to 100",65
same,"Plant response rating, Lambsquarters","[8]; 31 g ai/ha, scale 0 to 100",80
same,"Plant response rating, Lambsquarters","[8]; 62 g ai/ha, scale 0 to 100",90
same,"Plant response rating, Wheat","[9]; 125 g ai/ha, scale of 0 to 100",80
same,"Plant response rating, Wheat","[9]; 16 g ai/ha, scale 0 to 100",0
same,"Plant response rating, Wheat","[9]; 31 g ai/ha, scale 0 to 100",0
same,"Plant response rating, Wheat","[9]; 62 g ai/ha, scale 0 to 100",30
same,"Plant response rating, Morningglory","[10]; 125 g ai/ha, scale of 0 to 100",95
same,"Plant response rating, Morningglory","[10]; 16 g ai/ha, scale 0 to 100",10
same,"Plant response rating, Morningglory","[10]; 31 g ai/ha, scale 0 to 100",40
same,"Plant response rating, Morningglory","[10]; 62 g ai/ha, scale 0 to 100",55
same,"Plant response rating, Oilseed Rape","[11]; 125 g ai/ha, scale of 0 to 100",100
same,"Plant response rating, Oilseed Rape","[11]; 16 g ai/ha, scale 0 to 100",5
same,"Plant response rating, Oilseed Rape","[11]; 31 g ai/ha, scale 0 to 100",80
same,"Plant response rating, Oilseed Rape","[11]; 62 g ai/ha, scale 0 to 100",80
same,"Plant response rating, Nutsedge, Yellow","[12]; 125 g ai/ha, scale of 0 to 100",0
same,"Plant response rating, Nutsedge, Yellow","[12]; 16 g ai/ha, scale 0 to 100",0
same,"Plant response rating, Nutsedge, Yellow","[12]; 31 g ai/ha, scale 0 to 100",0
same,"Plant response rating, Nutsedge, Yellow","[12]; 62 g ai/ha, scale 0 to 100",0
same,"Plant response rating, Corn","[13]; 62 g ai/ha, scale of 0 to 100",20
same,"Plant response rating, Corn","[13]; 125 g ai/ha, scale of 0 to 100",60
same,"Plant response rating, Corn","[13]; 16 g ai/ha, scale 0 to 100",5
same,"Plant response rating, Corn","[13]; 31 g ai/ha, scale 0 to 100",20
same,"Plant response rating, Soybean","[14]; 125 g ai/ha, scale of 0 to 100",90
same,"Plant response rating, Soybean","[14]; 16 g ai/ha, scale 0 to 100",0
same,"Plant response rating, Soybean","[14]; 31 g ai/ha, scale 0 to 100",0
same,"Plant response rating, Soybean","[14]; 62 g ai/ha, scale 0 to 100",15
same,"Plant response rating, Pigweed","[15]; 125 g ai/ha, scale of 0 to 100",100
same,"Plant response rating, Pigweed","[15]; 16 g ai/ha, scale 0 to 100",100
same,"Plant response rating, Pigweed","[15]; 31 g ai/ha, scale 0 to 100",100
same,"Plant response rating, Pigweed","[15]; 62 g ai/ha, scale 0 to 100",100
